Source: ChEMBL document CHEMBL3885881, “DrugMatrix”

Species on record: Rattus norvegicus
Experiment: DrugMatrix - Regimen: Daily Repeat
Assay type: toxicity, organism-based, Sprague-Dawley
Parameters: regimen Daily Repeat, gender Male, age 6-8 weeks
Conditions: in vivo, po, route oral GAVAGE, […]; for ABSOLUTE BASOPHIL / ABSOLUTE EOSINOPHIL / ABSOLUTE LYMPHOCYTE / ABSOLUTE MONOCYTE / ABSOLUTE SEGMENTED NEUTROPHIL / BASOPHIL / EOSINOPHIL / ERYTHROCYTE COUNT / HEMATOCRIT / HEMOGLOBIN / LEUKOCYTE COUNT / LYMPHOCYTE / MEAN CORPUSCULAR HEMOGLOBIN / MEAN CORPUSCULAR HEMOGLOBIN CONCENTRATION / MEAN CORPUSCULAR VOLUME / MONOCYTE / NEUTROPHIL / NUCLEATED RED BLOOD CELLS / PLATELET COUNT: tissue Blood; for ALANINE AMINOTRANSFERASE / ALBUMIN / ALKALINE PHOSPHATASE / ASPARTATE AMINOTRANSFERASE / BLOOD UREA NITROGEN / CARBON DIOXIDE / CHLORIDE / CHOLESTEROL / CREATINE PHOSPHOKINASE / CREATININE / GLUCOSE / LACTATE DEHYDROGENASE / LIPASE / PHOSPHORUS / POTASSIUM / SODIUM / TOTAL BILIRUBIN / TOTAL PROTEIN / URIC ACID: tissue Plasma
[1] = 0 mg/kg, 72 h, dose level Control, time 3 day
[2] = 0 mg/kg, 120 h, dose level Control, time 5 day
[3] = 1 mg/kg, 72 h, dose level Low, time 3 day

## O=C(O)COC(=O)Cc1ccccc1Nc1c(Cl)cccc1Cl [ACECLOFENAC]
[1]
  ABSOLUTE BASOPHIL: 0 CELLS/uL
  ABSOLUTE EOSINOPHIL: 0 CELLS/uL
  ABSOLUTE LYMPHOCYTE: 9244.83 CELLS/uL
  ABSOLUTE MONOCYTE: 102 CELLS/uL
  ABSOLUTE SEGMENTED NEUTROPHIL: 869.83 CELLS/uL
  BASOPHIL: 0%
  EOSINOPHIL: 0%
  ERYTHROCYTE COUNT: 5.43 x10E6/uL
  HEMATOCRIT: 34.03%
  HEMOGLOBIN: 13.27 G/DL
  LEUKOCYTE COUNT: 10.22 x10E3/uL
  LYMPHOCYTE: 90.33%
  MEAN CORPUSCULAR HEMOGLOBIN: 24.48 pg
  MEAN CORPUSCULAR HEMOGLOBIN CONCENTRATION: 39.03 G/DL
  MEAN CORPUSCULAR VOLUME: 62.75 fL
  MONOCYTE: 1%
  NEUTROPHIL: 8.67%
  NUCLEATED RED BLOOD CELLS: 0.17 /100WBC
  PLATELET COUNT: 989 x10E3/uL
  ALANINE AMINOTRANSFERASE: 77 u/L
  ALBUMIN: 3.97 G/DL
  ALKALINE PHOSPHATASE: 464.83 u/L
  ASPARTATE AMINOTRANSFERASE: 89.83 u/L
  BLOOD UREA NITROGEN: 12.17 mg/dL
  CARBON DIOXIDE: 34.17 mmol/L
  CHLORIDE: 98.33 MEQ/L
  CHOLESTEROL: 75.17 mg/dL
  CREATINE PHOSPHOKINASE: 367.67 u/L
  CREATININE: 0.16 mg/dL
  GLUCOSE: 142.67 mg/dL
  LACTATE DEHYDROGENASE: 139.33 u/L
  LIPASE: 9.5 u/L
  PHOSPHORUS: 10.85 mg/dL
  POTASSIUM: 6.38 MEQ/L
  SODIUM: 143.2 MEQ/L
  TOTAL BILIRUBIN: 0.2 mg/dL
  TOTAL PROTEIN: 5.77 G/DL
  URIC ACID: 0.7 mg/dL
[2]
  ABSOLUTE BASOPHIL: 0 CELLS/uL
  ABSOLUTE EOSINOPHIL: 0 CELLS/uL
  ABSOLUTE LYMPHOCYTE: 8295.33 CELLS/uL
  ABSOLUTE MONOCYTE: 84.67 CELLS/uL
  ABSOLUTE SEGMENTED NEUTROPHIL: 970 CELLS/uL
  BASOPHIL: 0%
  EOSINOPHIL: 0%
  ERYTHROCYTE COUNT: 5.74 x10E6/uL
  HEMATOCRIT: 36.22%
  HEMOGLOBIN: 13.85 G/DL
  LEUKOCYTE COUNT: 9.35 x10E3/uL
  LYMPHOCYTE: 88.67%
  MEAN CORPUSCULAR HEMOGLOBIN: 24.13 pg
  MEAN CORPUSCULAR HEMOGLOBIN CONCENTRATION: 38.25 G/DL
  MEAN CORPUSCULAR VOLUME: 63.08 fL
  MONOCYTE: 1%
  NEUTROPHIL: 10.33%
  NUCLEATED RED BLOOD CELLS: 0.17 /100WBC
  PLATELET COUNT: 883.83 x10E3/uL
  ALANINE AMINOTRANSFERASE: 64.5 u/L
  ALBUMIN: 4.12 G/DL
  ALKALINE PHOSPHATASE: 425.67 u/L
  ASPARTATE AMINOTRANSFERASE: 88.5 u/L
  BLOOD UREA NITROGEN: 14.17 mg/dL
  CARBON DIOXIDE: 30.5 mmol/L
  CHLORIDE: 100.33 MEQ/L
  CHOLESTEROL: 55.33 mg/dL
  CREATINE PHOSPHOKINASE: 287.17 u/L
  CREATININE: 0.2 mg/dL
  GLUCOSE: 162.83 mg/dL
  LACTATE DEHYDROGENASE: 111.33 u/L
  LIPASE: 10.5 u/L
  PHOSPHORUS: 10.32 mg/dL
  POTASSIUM: 5.13 MEQ/L
  SODIUM: 143.93 MEQ/L
  TOTAL BILIRUBIN: 0.17 mg/dL
  TOTAL PROTEIN: 5.9 G/DL
  URIC ACID: 0.77 mg/dL
[3]
  ABSOLUTE BASOPHIL: 0 CELLS/uL
  ABSOLUTE EOSINOPHIL: 34 CELLS/uL
  ABSOLUTE LYMPHOCYTE: 11265.67 CELLS/uL
  ABSOLUTE MONOCYTE: 0 CELLS/uL
  ABSOLUTE SEGMENTED NEUTROPHIL: 933.67 CELLS/uL
  BASOPHIL: 0%
  EOSINOPHIL: 0.33%
  ERYTHROCYTE COUNT: 5.17 x10E6/uL
  HEMATOCRIT: 32.3%
  HEMOGLOBIN: 12.7 G/DL
  LEUKOCYTE COUNT: 12.23 x10E3/uL
  LYMPHOCYTE: 92.33%
  MEAN CORPUSCULAR HEMOGLOBIN: 24.6 pg
  MEAN CORPUSCULAR HEMOGLOBIN CONCENTRATION: 39.37 G/DL
  MEAN CORPUSCULAR VOLUME: 62.53 fL
  MONOCYTE: 0%
  NEUTROPHIL: 7.33%
  NUCLEATED RED BLOOD CELLS: 0 /100WBC
  PLATELET COUNT: 1096 x10E3/uL
  ALANINE AMINOTRANSFERASE: 63.33 u/L
  ALBUMIN: 4.13 G/DL
  ALKALINE PHOSPHATASE: 435.67 u/L
  ASPARTATE AMINOTRANSFERASE: 81.67 u/L
  BLOOD UREA NITROGEN: 12.33 mg/dL
  CARBON DIOXIDE: 33 mmol/L
  CHLORIDE: 98 MEQ/L
  CHOLESTEROL: 77.33 mg/dL
  CREATINE PHOSPHOKINASE: 224.33 u/L
  CREATININE: 0.13 mg/dL
  GLUCOSE: 132.33 mg/dL
  LACTATE DEHYDROGENASE: 137.33 u/L
  LIPASE: 9.67 u/L
  PHOSPHORUS: 11.77 mg/dL
  POTASSIUM: 6.44 MEQ/L
  SODIUM: 143.43 MEQ/L
  TOTAL BILIRUBIN: 0.2 mg/dL
  TOTAL PROTEIN: 5.9 G/DL
  URIC ACID: 0.77 mg/dL
